Data: patent publication US20200068887A1, “TREATMENT FOR REMOVING ECTOPARASITES FROM FISH” (priority 2016, published 2020)

Tests used:
Format in all cases: in vivo
L. salmonis = experiment: Field well boat treatment, pre- vs post-treatment sea lice counts; details: 20 ppm 60 min on well boat, within 24 hours after treatment, 30 fish per pen; pens A-D
Method: (§1) The effectiveness of imidacloprid against pre-adult and adult stages of L. salmonis and Caligus sp. infections on farmed Atlantic salmon was investigated by performing pre- and post-treatment sea lice counts on salmon undergoing a treatment with imidacloprid. This trial was conducted at a commercial salmon farm in Norway. The salmon were pumped onto a well boat and were exposed to 20 ppm imidacloprid for 60 minutes. The average weight of the salmon was 3.5 kg and the average number of salmon per pen was 180,000. 30 fish per pen were assessed for L. salmonis and Caligus sp., and the number of each L. salmonis life stage found was recorded. This was performed within 24 hours prior to treatment, and within 24 hours after treatment.
These assessments were made on four pens of salmon in total. Prior to treatment, fish were crowded within the pen to enable them to be pumped into the well boat, which is where the pre-treatment sea lice assessments were conducted. The post-treatment sea lice assessments were made by removing fish from the outflow pipe on the well boat.
At all time points, 3 fish were removed and placed into an anaesthetic bath. This was repeated 10 times until 30 fish had been assessed.
(§2) The numbers of sea lice observed per fish for this trial for each of the four tested pens according to sea lice life cycle state, pre- or post-administration of active are presented in Table 5.

farmed Atlantic salmon = experiment: Observation of fish during field treatment; details: 20 ppm, 60 minutes, well boat
Method: as §1, §2

fish = experiment: Safety of imidacloprid treatment on fish
Method: The safety of the imidacloprid treatment on fish was assessed. Fish held in a flow through tank containing 271.8 L of sea water were exposed to 65 ppm w/v of the active ingredient imidacloprid. 17.67 g of imidacloprid was dissolved in 100 ml of dimethyl sulfoxide (DMSO) and the solution was added to approximately 900 ml sea water and mixed. The flow on the through tank was disabled and the solution of imidacloprid was added.
The fish were exposed to 65 ppm imidacloprid in static water for 1 hour and observed for behavioural changes at 5-10 minute intervals. The fish were then held for a further 7 days before being terminated.

`O=[N+]([O-])NC1=NCCN1Cc1ccc(Cl)nc1` [imidacloprid] was tested, and the “sea lice per fish, Adult Female, Post” value (L. salmonis) was 0.0, the “sea lice per fish, Adult Male, Post” value (L. salmonis) was 0.0 and the “sea lice per fish, Gravid Female, Post” value (L. salmonis) was 0.0. The “sea lice per fish, Pre-Adult Female, Post” value (L. salmonis) was 0.0, the “sea lice per fish, Pre-Adult Male, Post” value (L. salmonis) was 0.0 and the “sea lice per fish, Total, Post” value (L. salmonis) was 0.0. For the same compound, the “adverse behaviours of fish throughout treatment” value (farmed Atlantic salmon) was “no adverse behaviours seen”, the “adverse reactions during monitoring after exposure” value (fish; 65 ppm w/v for 1 hour, monitored a further 7 days) was “no adverse reactions being noted” and the “external pathologies on termination” value (fish; 65 ppm w/v for 1 hour, terminated after 7 days) was “no external pathologies were noted”. The “changes in fish behaviour during the exposure period” value (fish; 65 ppm w/v, static water, 1 hour) was “No observable changes in fish behaviour”.
